In PubChem BioAssay (NCI):
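Dose response: 5 concentrations. Exposure: 48 h. Format: 96-well plates. Endpoint: linear interpolation; highest concentration if not reached. The concentration for 50% growth inhibition is given as GI50. The concentration for full growth arrest is given as TGI.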

Key:
Assay in all cases: inhibition of tumour cell growth, NCI panel, 48 h
SNB-19 CNS = system: SNB-19 CNS
HCC-2998 colon = system: HCC-2998 colon
SF-539 CNS = system: SF-539 CNS
HS 578T breast = system: HS 578T breast
LOX IMVI melanoma = system: LOX IMVI melanoma
UO-31 renal = system: UO-31 renal
SF-295 CNS = system: SF-295 CNS
SW-620 colon = system: SW-620 colon
T-47D breast = system: T-47D breast
SR leukemia = system: SR leukemia

O=C(CC1(O)C(=O)N(Cc2ccccc2)c2ccc(Cl)cc21)c1ccc(C(=O)NCC2CCC3(CC2)OOC2(CCCCC2)OO3)cc1 (stereo not given)
GI50 (SNB-19 CNS): 5.34 µM | TGI (SNB-19 CNS): > 100 µM | GI50 (HCC-2998 colon): 1.31 µM | TGI (HCC-2998 colon): 3.02 µM | GI50 (SF-539 CNS): 0.191 µM | TGI (SF-539 CNS): 0.379 µM | GI50 (HS 578T breast): 2.11 µM | TGI (HS 578T breast): 11.6 µM | GI50 (LOX IMVI melanoma): 0.0573 µM | TGI (LOX IMVI melanoma): 0.197 µM | GI50 (UO-31 renal): 0.134 µM | TGI (UO-31 renal): 0.289 µM | GI50 (SF-295 CNS): 0.57 µM | TGI (SF-295 CNS): 1.34 µM | GI50 (SW-620 colon): 2.21 µM | TGI (SW-620 colon): 5.88 µM | GI50 (T-47D breast): 0.653 µM | TGI (T-47D breast): 3.38 µM | GI50 (SR leukemia): 0.214 µM | TGI (SR leukemia): 0.531 µM

O=C(Nc1ccc(Cc2ccccc2)cc1)Nc1nn(C(=O)Nc2ccc(Cc3ccccc3)cc2)c2ccccc12
GI50 (SNB-19 CNS): > 100 µM | TGI (SNB-19 CNS): > 100 µM | GI50 (HCC-2998 colon): > 100 µM | TGI (HCC-2998 colon): > 100 µM | GI50 (SF-539 CNS): > 100 µM | TGI (SF-539 CNS): > 100 µM | GI50 (HS 578T breast): 74.2 µM | TGI (HS 578T breast): > 100 µM | GI50 (LOX IMVI melanoma): 71 µM | TGI (LOX IMVI melanoma): > 100 µM | GI50 (UO-31 renal): > 100 µM | TGI (UO-31 renal): > 100 µM | GI50 (SF-295 CNS): > 100 µM | TGI (SF-295 CNS): > 100 µM | GI50 (SW-620 colon): > 100 µM | TGI (SW-620 colon): > 100 µM | GI50 (T-47D breast): > 100 µM | TGI (T-47D breast): > 100 µM | GI50 (SR leukemia): 16.3 µM | TGI (SR leukemia): 35.8 µM

CCCc1n(Cc2ccc3ccccc3c2)cc[n+]1Cc1ccc2ccccc2c1
GI50 (SNB-19 CNS): 0.869 µM | TGI (SNB-19 CNS): 2.26 µM | GI50 (HCC-2998 colon): 0.716 µM | TGI (HCC-2998 colon): 2.07 µM | GI50 (SF-539 CNS): 1.1 µM | TGI (SF-539 CNS): 2.85 µM | GI50 (HS 578T breast): 1.75 µM | TGI (HS 578T breast): 6.67 µM | GI50 (LOX IMVI melanoma): 0.926 µM | TGI (LOX IMVI melanoma): 2.19 µM | GI50 (UO-31 renal): 2.56 µM | TGI (UO-31 renal): 11.6 µM | GI50 (SF-295 CNS): 1.44 µM | TGI (SF-295 CNS): 3.34 µM | GI50 (SW-620 colon): 1.34 µM | TGI (SW-620 colon): 3.33 µM | GI50 (T-47D breast): 0.377 µM | TGI (T-47D breast): 3.17 µM | GI50 (SR leukemia): 0.597 µM | TGI (SR leukemia): 2.62 µM
